Source: PMC5112578, “Zika antiviral chemotherapy: identification of drugs and promising starting points for drug discovery from an FDA-approved library” (F1000Research, 2016)
Where a name gives a salt, the structure may show the parent alone. Read-outs that look alike come from different tables or passages of the source. One block for each molecule: values may come before it. Numbered stars: 1 amine (or outer) side, 2 acyl side, 3 side chain; on linkers, the order of the positions; unused ones are H or OH. Bridge positions count the residues as written; N and C are the ends. Square brackets hold non-standard residues; d marks the D form. Peptide text beside a SMILES is read from it. I, II: the chains in the order shown. Actinocin(9to1) = Cc1c2oc3c(C)ccc(C(=O)[*:1])c3nc-2c(C(=O)[*:2])c(N)c1=O; NMeV = CN[C@H](C(=O)O)C(C)C; Sar = CNCC(=O)O

Columns and labels:
[1] = Table 2; no reference given; cited from earlier work
[2] = test system: Zika virus (ZIKV)
[3] = test system: Zika virus (ZIKV); experiment: ZIKV high content screening assay (infection ratio by immunofluorescence in Huh7); conditions: for Max. Activity (% of infection inhibition) / S.I. (CC 50/EC 50): Table 2; for Max. Activity (% of infection inhibition): dose-response; for Max. Activity (% of infection inhibition) / activity: Huh7, ZIKV, 72 h; for activity: in our assay, library screened at 20 µM; for S.I. (CC 50/EC 50): SI = CC50/EC50, Huh7; for SI: SI = CC50/EC50
[4] = test system: Huh7 cells; experiment: Cell toxicity / cell ratio in the ZIKV high content assay; conditions: for toxicity: in our assay, library screened at 20 µM, Huh7, 72 h; for CC50: Table S2, 50% reduction in cell viability vs infected IFNα2A treated cells, 72 h
[5] = in humans; no reference given; cited from earlier work
[6] = Table S2, 9 point DRC from 50 µM, Huh7, ZIKV MOI 0.5, 72 h

EC50 ([3]; Zika virus, Huh-7, 72 h): 14.3 ± 8.6 µM
Compound: O=c1[nH]cc(F)c(=O)[nH]1 [5-Fluorouracil]
Water Solubility [1]: 12500 µg/mL
S.I. (CC 50/EC 50) [2]: > 2.5
Max. Activity (% of infection inhibition) [3]: 57%

EC50 ([3]; Zika virus, Huh-7, 72 h): 2.3 ± 0.1 µM
Compound: O=c1cnn([C@@H]2O[C@H](CO)[C@@H](O)[C@H]2O)c(=O)[nH]1 [6-Azauridine]
Water Solubility (mg/mL) [1]: Very high
Max. Activity (% of infection inhibition) [3]: 88.3%

Compound: Cn1cnc([N+](=O)[O-])c1Sc1ncnc2nc[nH]c12 [Azathioprine]
toxicity [4]: higher than 50%

Compound: CC(C)/N=c1\cc2n(-c3ccc(Cl)cc3)c3ccccc3nc-2cc1Nc1ccc(Cl)cc1 [Clofazimine]
activity [3]: lower than 50%

Compound: Cc1c2oc3c(C)ccc(C(=O)N[C@@H]4C(=O)N[C@H](C(C)C)C(=O)N5CCC[C@H]5C(=O)N(C)CC(=O)N(C)[C@@H](C(C)C)C(=O)O[C@@H]4C)c3nc-2c(C(=O)N[C@@H]2C(=O)N[C@H](C(C)C)C(=O)N3CCC[C@H]3C(=O)N(C)CC(=O)N(C)[C@@H](C(C)C)C(=O)O[C@@H]2C)c(N)c1=O [Dactinomycin] (I: T[dV]P[Sar][NMeV] / II: T[dV]P[Sar][NMeV]; ester I:1-I:C, II:1-II:C; linker I:N-II:N via Actinocin(9to1))
toxicity [4]: higher than 50%

Compound: C[C@H]1O[C@@H](O[C@H]2[C@@H](O)C[C@H](O[C@H]3[C@@H](O)C[C@H](O[C@H]4CC[C@@]5(C)[C@H](CC[C@@H]6[C@@H]5C[C@@H](O)[C@]5(C)[C@@H](C7=CC(=O)OC7)CC[C@]65O)C4)O[C@@H]3C)O[C@@H]2C)C[C@H](O)[C@@H]1O [Digoxin]
toxicity [4]: higher than 50%

EC50 ([3]; Zika virus, Huh-7, 72 h): 41.7 ± 10.1 µM
Compound: CO[C@@H]1[C@@H](O[C@@H]2O[C@H](C)[C@@H](O[C@H]3C[C@@](C)(O)[C@@H](OC(=O)CC(C)C)[C@H](C)O3)[C@H](N(C)C)[C@H]2O)[C@@H](CC=O)C[C@@H](C)[C@@H](O)/C=C/C=C/C[C@@H](C)OC(=O)C[C@H]1O [Kitasamycin]
Water Solubility [1]: 50 µg/mL
S.I. (CC 50/EC 50) [3]: > 1.2
Max. Activity (% of infection inhibition) [3]: 69.1%

EC50 ([3]; Zika virus, Huh-7, 72 h): 20.7 ± 8.6 µM
Compound: CC[C@H](C)C(=O)O[C@H]1C[C@@H](C)C=C2C=C[C@H](C)[C@H](CC[C@@H]3C[C@@H](O)CC(=O)O3)[C@H]21 [Lovastatin]
S.I. (CC 50/EC 50) [3]: > 2.5
Max. Activity (% of infection inhibition) [3]: 60.7%

Compound: COC(=O)Nc1nc2ccc(C(=O)c3ccccc3)cc2[nH]1 [Mebendazole]
toxicity [4]: higher than 50%

Compound: OC(c1cc(C(F)(F)F)nc2c(C(F)(F)F)cccc12)C1CCCCN1 (centres unmarked) [Mefloquine]
toxicity [4]: higher than 50%

Compound: S=c1[nH]cnc2nc[nH]c12 [Mercaptopurine]
activity [3]: lower than 50%

Compound: COc1c2occc2cc2ccc(=O)oc12 [Methoxsalen]
activity [3]: lower than 50%

EC50 ([3]; Zika virus, Huh-7, 72 h): 16.3 ± 7.7 µM
Compound: O=C1c2cccc3c2[C@H](CCC3)CN1[C@@H]1CN2CCC1CC2 [Palonosetron]
Water Solubility (mg/mL) [1]: Very high
S.I. (CC 50/EC 50) [2]: > 3.06
Max. Activity (% of infection inhibition) [3]: 97.7%
bioavailability [5]: 97%

Compound: Clc1ccc2c(c1)CCc1cccnc1C2=C1CCNCC1 [SAM001246545]
CC50 [4]: 20.7 ± 4.1 µM

Compound: Cc1ccc(NC(=O)c2ccc(CN3CCN(C)CC3)cc2)cc1Nc1nccc(-c2cccnc2)n1 [SAM001246622]
EC50 [3, 6]: 13.3 ± 5.8 µM

Compound: COCCCC/C(=N\OCCN)c1ccc(C(F)(F)F)cc1.O=C(O)/C=C\C(=O)O [SAM001246977]
CC50 [4]: 24.3 ± 3.1 µM
EC50 [3, 6]: 17 ± 3.6 µM
SI ([3]; Table S2): 1.43

Compound: CN1CCN(CCCN2c3ccccc3Sc3ccc(Cl)cc32)CC1.O=C(O)/C=C\C(=O)O.O=C(O)/C=C\C(=O)O [SAM001247054]
CC50 [4]: 9 ± 4.4 µM
EC50 [3, 6]: 10.3 ± 3.1 µM
SI ([3]; Table S2): 0.87

Compound: Clc1ccccc1C(c1ccccc1)(c1ccccc1)n1ccnc1 [SAM001247056]
CC50 [4]: 8.7 ± 1.2 µM
EC50 [3, 6]: 14.3 ± 3.5 µM
SI ([3]; Table S2): 0.6

Compound: CC(C)c1ccc2c(c1)c(SC(C)(C)C)c(CC(C)(C)C(=O)O)n2Cc1ccc(Cl)cc1 [SAM001247075]
CC50 [4]: 33.7 ± 10.8 µM
EC50 [3, 6]: 12 ± 1.7 µM
SI ([3]; Table S2): 2.8

Compound: Oc1cc2c(cc1O)[C@H]1c3ccccc3CN[C@@H]1CC2 [SAM001247083]
CC50 [4]: 16.5 µM
EC50 [3, 6]: 21.5 ± 0.7 µM

Compound: N=C(NCc1ccc(Cl)cc1)SCCCc1c[nH]cn1 [SAM001247107]
CC50 [4]: 19.3 ± 9.7 µM
EC50 [3, 6]: 14 µM
SI ([3]; Table S2): 1.38

Compound: CC(CN1c2ccccc2Sc2ccccc21)N(C)C.Cl (centres unmarked) [SAM002264636]
CC50 [4]: 28.3 ± 17.6 µM
EC50 [3, 6]: 19.7 ± 4.5 µM
SI ([3]; Table S2): 1.44

Compound: CN1C2CCC1CC(OC(c1ccccc1)c1ccccc1)C2.CS(=O)(=O)O (centres unmarked) [SAM002548938]
CC50 [4]: 31.3 ± 15.3 µM
EC50 [3, 6]: 21.3 ± 10 µM
SI ([3]; Table S2): 1.47

Compound: Clc1ccc2c(c1)C(N1CCNCC1)=Nc1ccccc1O2 [SAM002564189]
CC50 [4]: 11.7 ± 11 µM
EC50 [3, 6]: 19.3 ± 5.5 µM
SI ([3]; Table S2): 0.6

Compound: CN[C@H]1CC[C@@H](c2ccc(Cl)c(Cl)c2)c2ccccc21 [Sertraline-HCl]
activity [3]: lower than 50%
